# Patent US9334290B2, “Substituted tetrahydrocarbazole and carbazole carboxamide compounds” (Bristol-Myers Squibb Company, priority 2013, dated 2016)
# Like-named read-outs stand apart in the source and are kept apart here.
# How the values were obtained:
# Jak2 tyrosine kinase = Jak2 tyrosine kinase (Homo sapiens (Human), UniProt O60674); assay: Jak2 tyrosine kinase assay; assay type: biochemical
# [1] = test system: CD69 expression on B cells in human whole blood; assay: Whole blood assay of BCR-stimulated CD69 expression on B cells; assay type: cell-based; settings: BCR-stimulated, read-out: CD69 IC50 values
# human recombinant Btk = human recombinant Btk (Homo sapiens (Human), UniProt Q06187); assay: Human Recombinant Btk enzyme assay; assay type: biochemical
# human recombinant Btk, sequence (Q06187 whole entry): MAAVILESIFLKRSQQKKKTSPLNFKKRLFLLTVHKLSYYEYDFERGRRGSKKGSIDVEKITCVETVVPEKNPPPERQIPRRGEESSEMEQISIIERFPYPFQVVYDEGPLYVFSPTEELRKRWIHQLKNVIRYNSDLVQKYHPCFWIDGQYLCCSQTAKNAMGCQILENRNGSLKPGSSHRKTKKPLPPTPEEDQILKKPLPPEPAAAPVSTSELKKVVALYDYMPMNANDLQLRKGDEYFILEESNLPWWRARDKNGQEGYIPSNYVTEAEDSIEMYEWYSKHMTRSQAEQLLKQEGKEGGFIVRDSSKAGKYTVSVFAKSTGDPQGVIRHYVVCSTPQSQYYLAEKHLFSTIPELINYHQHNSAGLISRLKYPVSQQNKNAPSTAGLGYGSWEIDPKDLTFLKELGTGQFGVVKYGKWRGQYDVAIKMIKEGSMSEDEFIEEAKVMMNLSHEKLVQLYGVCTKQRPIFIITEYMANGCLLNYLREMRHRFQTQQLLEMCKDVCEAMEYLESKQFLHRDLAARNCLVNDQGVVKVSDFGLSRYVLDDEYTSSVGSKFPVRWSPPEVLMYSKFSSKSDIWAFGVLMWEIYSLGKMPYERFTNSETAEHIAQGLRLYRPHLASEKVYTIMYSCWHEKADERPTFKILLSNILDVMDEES
# Jak2 tyrosine kinase, sequence (O60674 whole entry): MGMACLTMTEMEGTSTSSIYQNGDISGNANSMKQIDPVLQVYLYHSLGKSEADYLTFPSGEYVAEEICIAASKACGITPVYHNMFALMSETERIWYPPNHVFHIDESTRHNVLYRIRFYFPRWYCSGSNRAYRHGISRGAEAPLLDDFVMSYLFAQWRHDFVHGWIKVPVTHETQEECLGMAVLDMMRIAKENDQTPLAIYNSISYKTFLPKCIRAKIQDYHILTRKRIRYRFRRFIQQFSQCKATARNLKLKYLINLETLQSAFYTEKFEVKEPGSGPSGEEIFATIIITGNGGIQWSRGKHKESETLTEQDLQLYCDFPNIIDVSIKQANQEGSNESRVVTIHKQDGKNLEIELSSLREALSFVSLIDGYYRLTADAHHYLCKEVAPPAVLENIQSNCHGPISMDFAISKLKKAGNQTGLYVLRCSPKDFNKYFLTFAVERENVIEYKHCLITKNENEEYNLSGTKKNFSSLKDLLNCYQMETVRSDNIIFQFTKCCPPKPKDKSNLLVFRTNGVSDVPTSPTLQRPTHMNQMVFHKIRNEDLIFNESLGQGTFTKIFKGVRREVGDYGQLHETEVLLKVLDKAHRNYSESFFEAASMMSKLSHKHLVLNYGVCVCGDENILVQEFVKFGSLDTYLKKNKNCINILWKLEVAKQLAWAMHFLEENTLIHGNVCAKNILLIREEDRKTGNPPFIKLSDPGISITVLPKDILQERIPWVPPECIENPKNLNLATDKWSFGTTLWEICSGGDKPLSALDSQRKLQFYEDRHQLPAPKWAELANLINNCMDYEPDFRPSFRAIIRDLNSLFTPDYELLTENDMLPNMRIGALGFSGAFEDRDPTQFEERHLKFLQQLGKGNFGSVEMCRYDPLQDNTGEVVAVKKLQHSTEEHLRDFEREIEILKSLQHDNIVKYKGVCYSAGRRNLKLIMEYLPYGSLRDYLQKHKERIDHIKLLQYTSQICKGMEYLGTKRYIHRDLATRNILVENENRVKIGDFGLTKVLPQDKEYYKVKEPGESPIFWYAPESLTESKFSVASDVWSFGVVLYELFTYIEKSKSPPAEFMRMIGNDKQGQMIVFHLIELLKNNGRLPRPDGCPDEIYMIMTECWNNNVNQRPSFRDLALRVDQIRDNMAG
Structure (SMILES),IC50 (Jak2 tyrosine kinase),IC50 [1],IC50 (human recombinant Btk; read-out: Btk IC50 value),Ratio of Jak2/Btk IC50 values (Jak2 tyrosine kinase; selectivity of Btk over Jak2),"IC50 ([1]; Homo sapiens, B-cell)","IC50 (human recombinant Btk; human recombinant Btk 1 nM, ATP 20 μM, read-out: Btk IC50)","Ratio of Jak2/Btk IC50 values (Jak2 tyrosine kinase; Jak2 IC50 divided by Btk IC50, larger value = more selective for Btk)"
"Cc1c(-c2c(F)cc(C(N)=O)c3[nH]c4c(c23)CC[C@@H](C(C)(C)O)C4)cccc1-n1c(=O)c2cccc(F)c2n(C)c1=O (atropisomer, axis not shown) [Example 27, 6-Fluoro-5-(R)-(3-(S)-(8-fluoro-1-methyl-2,4-dioxo-1,2-dihydroquinazolin-3(4H)-yl)-2-methylphenyl)-2-(R)-(2-hydroxypropan-2-yl)-2,3,4,9-tetrahydro-1H-carbazole-8-carboxamide]",> 2000 nM,150 nM,2.2 nM,,,,
"Cc1c(-c2c(F)cc(C(N)=O)c3[nH]c4c(c23)CC[C@H](C(C)(C)O)C4)cccc1-n1c(=O)c2cccc(F)c2n(C)c1=O (atropisomer, axis not shown) [Example 28, 6-Fluoro-5-(R)-(3-(S)-(8-fluoro-1-methyl-2,4-dioxo-1,2-dihydroquinazolin-3(4H)-yl)-2-methylphenyl)-2-(S)-(2-hydroxypropan-2-yl)-2,3,4,9-tetrahydro-1H-carbazole-8-carboxamide]",32000 nM,,0.54 nM,59000,,,
"Cc1c(-c2c(Cl)cc(C(N)=O)c3[nH]c4cc(C(C)(C)O)ccc4c23)cccc1-n1c(=O)cc2sccn2c1=O (single isomer, unassigned) [Example 38]",300 nM,53 nM,0.34 nM,880,,,
"Cc1c(-c2c(F)cc(C(N)=O)c3[nH]c4cc(C(C)(C)O)ccc4c23)cccc1-n1c(=O)cc2c(F)cccn2c1=O (single isomer, unassigned) [Example 40]",830 nM,,0.46 nM,1800,19 nM,,
"Cc1c(-c2c(F)cc(C(N)=O)c3[nH]c4cc(C(C)(C)O)ccc4c23)cccc1-n1c(=O)cc2c(F)cccn2c1=O (single isomer, unassigned) [Example 41]",800 nM,22 nM,0.2 nM,4000,,,
"Cc1c(-c2c(Cl)cc(C(N)=O)c3[nH]c4c(c23)CC[C@H](C(C)(C)O)C4)cccc1-n1c(=O)[nH]c2c(F)cccc2c1=O (single isomer, unassigned) [Example 55]",9000 nM,44 nM,,,,,
"Cc1c(-c2c(Cl)cc(C(N)=O)c3[nH]c4c(c23)CC[C@H](C(C)(C)O)C4)cccc1-n1c(=O)[nH]c2c(F)cccc2c1=O (single isomer, unassigned) [Example 56]",> 2000 nM,140 nM,,,,,
"Cc1c(-c2c(Cl)cc(C(N)=O)c3[nH]c4c(c23)CC[C@H](C(C)(C)O)C4)cccc1-n1c(=O)[nH]c2c(F)cc(F)cc2c1=O (single isomer, unassigned) [Example 57]",270 nM,,0.25 nM,1100,,,
"Cc1c(-c2c(F)cc(C(N)=O)c3[nH]c4c(c23)CC[C@H](C(C)(C)O)C4)cccc1-n1c(=O)[nH]c2c(F)cccc2c1=O (single isomer, unassigned) [Example 59]",,,0.9 nM,,,,
"Cc1c(-c2c(F)cc(C(N)=O)c3[nH]c4c(c23)CC[C@H](C(C)(C)O)C4)cccc1-n1c(=O)[nH]c2c(Cl)cccc2c1=O (single isomer, unassigned) [Example 63]",11000 nM,,0.45 nM,24000,,,
"Cc1c(-c2c(F)cc(C(N)=O)c3[nH]c4c(c23)CC[C@H](C(C)(C)O)C4)cccc1-n1c(=O)cc2c(Cl)cccn2c1=O (single isomer, unassigned) [Example 65]",> 2000 nM,110 nM,,,,,
"Cc1c(-c2c(F)cc(C(N)=O)c3[nH]c4c(c23)CC[C@@H](C(C)(C)O)C4)cccc1-n1c(=O)[nH]c2c(F)cccc2c1=O (single isomer, unassigned) [Example 67]",,,0.49 nM,,,,
"Cc1c(-c2c(F)cc(C(N)=O)c3[nH]c4c(c23)CC[C@H](C(C)(C)O)C4)cccc1-n1c(=O)cc2c(F)cccn2c1=O (single isomer, unassigned) [Example 68]",350 nM,,0.56 nM,630,,,
"Cc1c(-c2c(F)cc(C(N)=O)c3[nH]c4c(c23)CC[C@H](C(C)(C)O)C4)cccc1-n1c(=O)cc2c(F)cccn2c1=O (single isomer, unassigned) [Example 69]",9500 nM,150 nM,0.84 nM,11000,,,
"Cc1nc(C(N)=O)c2[nH]c3cc(C(C)(C)O)ccc3c2c1-c1cccc(-n2cnc3ccccc3c2=O)c1C [Comparative Example 76, 7-(2-Hydroxypropan-2-yl)-3-methyl-4-(2-methyl-3-(4-oxoquinazolin-3(4H)-yl)phenyl)-9H-pyrido[3,4-b]indole-1-carboxamide, reference compound]",200 nM,,6.9 nM,29,,6.9 nM,29
Cc1c(-c2c(F)cc(C(N)=O)c3[nH]c4cc(CCO)ccc4c23)cccc1-n1c(=O)cc2c(F)cccn2c1=O [Example 70],550 nM,,0.59 nM,930,,,

# Continued, values first:
IC50 (Jak2 tyrosine kinase),IC50 [1],IC50 (human recombinant Btk; read-out: Btk IC50 value),Ratio of Jak2/Btk IC50 values (Jak2 tyrosine kinase; selectivity of Btk over Jak2),"IC50 ([1]; Homo sapiens, B-cell)","IC50 (human recombinant Btk; human recombinant Btk 1 nM, ATP 20 μM, read-out: Btk IC50)","Ratio of Jak2/Btk IC50 values (Jak2 tyrosine kinase; Jak2 IC50 divided by Btk IC50, larger value = more selective for Btk)",Structure (SMILES)
7500 nM,160 nM,,,,,,"Cc1c(-c2c(Cl)cc(C(N)=O)c3[nH]c4c(c23)CC[C@H](C(C)(C)O)C4)cccc1-n1c(=O)c2cccc(F)c2n(C)c1=O (atropisomer, axis not shown) [Example 26, 6-Chloro-5-(R)-(3-(S)-(8-fluoro-1-methyl-2,4-dioxo-1,2-dihydroquinazolin-3(4H)-yl)-2-methylphenyl)-2-(S)-(2-hydroxypropan-2-yl)-2,3,4,9-tetrahydro-1H-carbazole-8-carboxamide]"
> 2000 nM,,2.1 nM,>950,170 nM,,,"COc1ccc2c(=O)n(-c3cccc(-c4c(Cl)cc(C(N)=O)c5[nH]c6cc(C(C)(C)O)ccc6c45)c3C)c(=O)n(C)c2c1 (single isomer, unassigned) [Example 5]"
1500 nM,100 nM,1.1 nM,1400,,,,"COc1ccc2c(=O)n(-c3cccc(-c4c(Cl)cc(C(N)=O)c5[nH]c6cc(C(C)(C)O)ccc6c45)c3C)c(=O)n(C)c2c1 (single isomer, unassigned) [Example 6]"
1900 nM,,,,190 nM,,,"[2H]C([2H])([2H])n1c(=O)n(-c2cccc(-c3c(Cl)cc(C(N)=O)c4[nH]c5cc(C(C)(C)O)ccc5c34)c2C)c(=O)c2cccc(F)c21 (single isomer, unassigned) [Example 12]"
,,1.2 nM,,20 nM,,,"Cc1c(-c2c(Cl)cc(C(N)=O)c3[nH]c4cc(C(C)(C)O)ccc4c23)cccc1-n1c(=O)[nH]c2c(F)cccc2c1=O (single isomer, unassigned) [Example 14]"
2400 nM,,1 nM,2400,170 nM,,,"Cc1c(-c2c(C#N)cc(C(N)=O)c3[nH]c4cc(C(C)(C)O)ccc4c23)cccc1-n1c(=O)c2cccc(F)c2n(C)c1=O (single isomer, unassigned) [Example 15]"
1900 nM,120 nM,0.27 nM,,,,,"Cc1c(-c2c(C#N)cc(C(N)=O)c3[nH]c4cc(C(C)(C)O)ccc4c23)cccc1-n1c(=O)c2cccc(F)c2n(C)c1=O (single isomer, unassigned) [Example 16]"
,,0.22 nM,,64 nM,,,"Cc1c(-c2c(F)cc(C(N)=O)c3[nH]c4cc(C(C)(C)O)ccc4c23)cccc1-n1c(=O)cc2c(Cl)cccn2c1=O (single isomer, unassigned) [Example 30]"
,37 nM,0.19 nM,,,,,"Cc1c(-c2c(F)cc(C(N)=O)c3[nH]c4cc(C(C)(C)O)ccc4c23)cccc1-n1c(=O)cc2c(Cl)cccn2c1=O (single isomer, unassigned) [Example 31]"
800 nM,,0.25 nM,3200,31 nM,,,"Cc1c(-c2c(Cl)cc(C(N)=O)c3[nH]c4cc(C(C)(C)O)ccc4c23)cccc1-n1c(=O)cc2c(F)cccn2c1=O (single isomer, unassigned) [Example 35]"
450 nM,28 nM,0.28 nM,1600,,,,"Cc1c(-c2c(Cl)cc(C(N)=O)c3[nH]c4cc(C(C)(C)O)ccc4c23)cccc1-n1c(=O)cc2c(F)cccn2c1=O (single isomer, unassigned) [Example 36]"
370 nM,130 nM,0.31 nM,1200,,,,"Cc1c(-c2c(Cl)cc(C(N)=O)c3[nH]c4cc(C(C)(C)O)ccc4c23)cccc1-n1c(=O)cc2sccn2c1=O (single isomer, unassigned) [Example 39]"
> 2000 nM,,0.41 nM,>4900,,,,"[2H]C([2H])([2H])n1c(=O)n(-c2cccc(-c3c(F)cc(C(N)=O)c4[nH]c5c(c34)CC[C@H](C(C)(C)O)C5)c2C)c(=O)c2cccc(F)c21 (single isomer, unassigned) [Example 62]"
,,2.9 nM,,140 nM,,,"Cc1c(-c2c(Cl)cc(C(N)=O)c3[nH]c4cc(C(C)(C)O)ccc4c23)cccc1-n1c(=O)[nH]c2c(F)cccc2c1=O [Example 13, 3-Chloro-4-(3-(8-fluoro-2,4-dioxo-1,2-dihydroquinazolin-3(4H)-yl)-2-methylphenyl)-7-(2-hydroxypropan-2-yl)-9H-carbazole-1-carboxamide]"
630 nM,,0.91 nM,690,,,,"COc1cccn2c(=O)n(-c3cccc(-c4c(Cl)cc(C(N)=O)c5[nH]c6cc(C(C)(C)O)ccc6c45)c3C)c(=O)cc12 [Example 37, 3-Chloro-7-(2-hydroxypropan-2-yl)-4-(3-(5-methoxy-1,3-dioxo-1H-pyrido[1,2-c]pyrimidin-2(3H)-yl)-2-methylphenyl)-9H-carbazole-1-carboxamide]"
